Several values for one entry are separate records, joined by “and”; a condition that tells them apart may be missing. Equal entries are not always repeated. Where two headings read alike, the source gives them in different places.
Experiments:
[1] = test system: Amaranthus rudis (AMATA), tall water hemp; assay: Postemergence herbicide evaluation, growth of Amaranthus rudis (AMATA); type: in vivo; details: Amaranthus tuberculatus, post-emergence, read-out: Ave. AMATA, percent reduction in plant size relative to the untreated control; for pest or weed control at 280 g/ha: 280 g ae/ha; for pest or weed control at 560 g/ha: 560 g ae/ha
[2] = test system: Ambrosia artemisiifolia (AMBEL), common ragweed; assay: Postemergence herbicide evaluation, growth of Ambrosia artemisiifolia (AMBEL); type: in vivo; details: Ambrosia artemisiifolia, post-emergence, read-out: AVE. AMBEL, percent reduction in plant size relative to the untreated control; for pest or weed control at 280 g/ha: 280 g ae/ha; for pest or weed control at 560 g/ha: 560 g ae/ha
[3] = test system: Abutilon theophrasti (ABUTH), velvetleaf; assay: Postemergence herbicide evaluation, growth of Abutilon theophrasti (ABUTH); type: in vivo; details: Abutilon theophrasti, post-emergence, read-out: AVE. ABUTH, percent reduction in plant size relative to the untreated control; for pest or weed control at 280 g/ha: 280 g ae/ha; for pest or weed control at 560 g/ha: 560 g ae/ha
[4] = test system: Chenopodium album (CHEAL), common lambsquarters; assay: Postemergence herbicide evaluation, growth of Chenopodium album (CHEAL); type: in vivo; details: Chenopodium album, post-emergence, read-out: Ave. CHEAL, percent reduction in plant size relative to the untreated control; for pest or weed control at 280 g/ha: 280 g ae/ha; for pest or weed control at 560 g/ha: 560 g ae/ha
[5] = test system: glyphosate resistant Conyza canadensis (L.) (ERICA), horseweed; assay: Postemergence herbicide evaluation, growth of Conyza canadensis (ERICA); type: in vivo; details: Erigeron canadensis, post-emergence, read-out: Ave. ERICA, percent reduction in plant size relative to the untreated control; for pest or weed control at 280 g/ha: 280 g ae/ha; for pest or weed control at 560 g/ha: 560 g ae/ha
[6] = Volatility of compounds measured by thermogravimetric analysis (TGA); type: physicochemical
[7] = test system: weeds ABUTH, AMATA, AMBEL, CHEAL, ERICA; assay: Postemergence herbicide evaluation, overall average % weed control (ABUTH, AMATA, AMBEL, CHEAL, ERICA); type: in vivo; details: post-emergence, read-out: Overall Ave % Weed Control; for pest or weed control at 280 g/ha: 280 g ae/ha; for pest or weed control at 560 g/ha: 560 g ae/ha

Structure (SMILES) | pest or weed control at 280 g/ha ([1]; 168 h, 7 DAA) [%] | pest or weed control at 560 g/ha ([1]; 168 h, 7 DAA) [%] | pest or weed control at 280 g/ha ([1]; 336 h, 14 DAA) [%] | pest or weed control at 560 g/ha ([1]; 336 h, 14 DAA) [%] | pest or weed control at 280 g/ha ([1]; 504 h, 21 DAA) [%] | pest or weed control at 560 g/ha ([1]; 504 h, 21 DAA) [%] | pest or weed control at 280 g/ha ([2]; 168 h, 7 DAA) [%] | pest or weed control at 560 g/ha ([2]; 168 h, 7 DAA) [%] | pest or weed control at 280 g/ha ([2]; 336 h, 14 DAA) [%] | pest or weed control at 560 g/ha ([2]; 336 h, 14 DAA) [%] | pest or weed control at 280 g/ha ([2]; 504 h, 21 DAA) [%] | pest or weed control at 560 g/ha ([2]; 504 h, 21 DAA) [%] | pest or weed control at 280 g/ha ([3]; 168 h, 7 DAA) [%] | pest or weed control at 560 g/ha ([3]; 168 h, 7 DAA) [%] | pest or weed control at 280 g/ha ([3]; 336 h, 14 DAA) [%] | pest or weed control at 560 g/ha ([3]; 336 h, 14 DAA) [%] | pest or weed control at 280 g/ha ([3]; 504 h, 21 DAA) [%] | pest or weed control at 560 g/ha ([3]; 504 h, 21 DAA) [%] | pest or weed control at 280 g/ha ([4]; 168 h, 7 DAA) [%] | pest or weed control at 560 g/ha ([4]; 168 h, 7 DAA) [%] | also measured
C/C(=N\OC(=O)COc1ccc(Cl)cc1Cl)c1ccccc1 [Compound A1, Acetophenone O-(2-(2,4-dichlorophenoxy)acetyl) oxime] | 73 | 78 | 85 | 87 | 80 | 82 | 65 | 80 | 88 | 97 | 95 | 100 | 83 | 85 | 96 | 97 | 97 | 100 | 70 | 70 | pest or weed control at 280 g/ha ([4]; 336 h, 14 DAA): 78%; pest or weed control at 560 g/ha ([4]; 336 h, 14 DAA): 89%; pest or weed control at 280 g/ha ([4]; 504 h, 21 DAA): 83%; pest or weed control at 560 g/ha ([4]; 504 h, 21 DAA): 98%; pest or weed control at 280 g/ha ([5]; 168 h, 7 DAA): 73%; pest or weed control at 560 g/ha ([5]; 168 h, 7 DAA): 73%; pest or weed control at 280 g/ha ([5]; 336 h, 14 DAA): 90%; pest or weed control at 560 g/ha ([5]; 336 h, 14 DAA): 90%; pest or weed control at 280 g/ha ([5]; 504 h, 21 DAA): 93%; pest or weed control at 560 g/ha ([5]; 504 h, 21 DAA): 98%; TGA Data (rate of weight loss, volatility) [6]: 0.5 µg/min; pest or weed control at 280 g/ha ([7]; 168 h, 7 DAA): 73%; pest or weed control at 560 g/ha ([7]; 168 h, 7 DAA): 77%; pest or weed control at 280 g/ha ([7]; 336 h, 14 DAA): 87%; pest or weed control at 560 g/ha ([7]; 336 h, 14 DAA): 92%; pest or weed control at 280 g/ha ([7]; 504 h, 21 DAA): 89%; pest or weed control at 560 g/ha ([7]; 504 h, 21 DAA): 95%
O=C(COc1ccc(Cl)cc1Cl)O/N=C/c1ccccn1 [Compound A32] | 70 | 90 | 96 | 87.5 | 60 | 94 | 75 | 75 | 72.5 | 92.5 | 100 | 100 | 55 | 67.5 | 74 | 88.5 | 87.5 | 98.5 | 82.5 | 75 | pest or weed control at 280 g/ha ([4]; 336 h, 14 DAA): 97.5%; pest or weed control at 560 g/ha ([4]; 336 h, 14 DAA): 95%; pest or weed control at 280 g/ha ([4]; 504 h, 21 DAA): 97.5%; pest or weed control at 560 g/ha ([4]; 504 h, 21 DAA): 97.5%; pest or weed control at 280 g/ha ([5]; 168 h, 7 DAA): 87.5%; pest or weed control at 560 g/ha ([5]; 168 h, 7 DAA): 75%; pest or weed control at 280 g/ha ([5]; 336 h, 14 DAA): 97%; pest or weed control at 560 g/ha ([5]; 336 h, 14 DAA): 99.5%; pest or weed control at 280 g/ha ([5]; 504 h, 21 DAA): 99%; pest or weed control at 560 g/ha ([5]; 504 h, 21 DAA): 98%; TGA Data (rate of weight loss, volatility) [6]: 0.809 µg/min and 0.87 µg/min; pest or weed control at 280 g/ha ([7]; 168 h, 7 DAA): 74%; pest or weed control at 560 g/ha ([7]; 168 h, 7 DAA): 76.5%; pest or weed control at 280 g/ha ([7]; 336 h, 14 DAA): 87.4%; pest or weed control at 560 g/ha ([7]; 336 h, 14 DAA): 92.6%; pest or weed control at 280 g/ha ([7]; 504 h, 21 DAA): 88.8%; pest or weed control at 560 g/ha ([7]; 504 h, 21 DAA): 97.6%
CC(C)ONC(=O)COc1ccc(Cl)cc1Cl [Compound D23] | 82.5 | 82.5 | 90 | 90 | 72.5 | 87.5 | 77.5 | 75 | 80 | 85 | 100 | 100 | 70 | 90 | 93.5 | 99 | 99 | 100 | 80 | 85 | pest or weed control at 280 g/ha ([4]; 336 h, 14 DAA): 96.5%; pest or weed control at 560 g/ha ([4]; 336 h, 14 DAA): 99%; pest or weed control at 280 g/ha ([4]; 504 h, 21 DAA): 94%; pest or weed control at 560 g/ha ([4]; 504 h, 21 DAA): 95%; pest or weed control at 280 g/ha ([5]; 168 h, 7 DAA): 80%; pest or weed control at 560 g/ha ([5]; 168 h, 7 DAA): 77.5%; pest or weed control at 280 g/ha ([5]; 336 h, 14 DAA): 100%; pest or weed control at 560 g/ha ([5]; 336 h, 14 DAA): 97.5%; pest or weed control at 280 g/ha ([5]; 504 h, 21 DAA): 99%; pest or weed control at 560 g/ha ([5]; 504 h, 21 DAA): 100%; TGA Data (rate of weight loss, volatility) [6]: 0.6973 µg/min; pest or weed control at 280 g/ha ([7]; 168 h, 7 DAA): 78%; pest or weed control at 560 g/ha ([7]; 168 h, 7 DAA): 82%; pest or weed control at 280 g/ha ([7]; 336 h, 14 DAA): 92%; pest or weed control at 560 g/ha ([7]; 336 h, 14 DAA): 94.1%; pest or weed control at 280 g/ha ([7]; 504 h, 21 DAA): 92.9%; pest or weed control at 560 g/ha ([7]; 504 h, 21 DAA): 96.5%

Source: patent US20260042731A1, “(2,4-DICHLOROPHENOXY)ACETIC ACID ANALOGS” (CORTEVA AGRISCIENCE LLC, priority 2022, published 2026)
